# Where two headings read alike, the source gives them in different places.
# What was measured:
# Drosophila OR47a = target: T1, Drosophila OR47a (Drosophila melanogaster, UniProt P81921); test: Calcium ion fluorescence (GCaMP6) assay, OR47a stable HEK293 cell line; assay type: cell-based; conditions: for OR47a response (VUAA1-normalized) at 1 μM / OR47a response (VUAA1-normalized) at 10 μM / OR47a response (VUAA1-normalized) at 100 μM / Average response: OR47a cell line; for OR47a response (VUAA1-normalized) at 1 μM: VOC concentration 1 μM; for OR47a response (VUAA1-normalized) at 10 μM: VOC concentration 10 μM; for OR47a response (VUAA1-normalized) at 100 μM: VOC concentration 100 μM; for Average response: mean of biological replicates
# T1 construct: expressed in transfected cells
# T1 sequence (P81921 1-385): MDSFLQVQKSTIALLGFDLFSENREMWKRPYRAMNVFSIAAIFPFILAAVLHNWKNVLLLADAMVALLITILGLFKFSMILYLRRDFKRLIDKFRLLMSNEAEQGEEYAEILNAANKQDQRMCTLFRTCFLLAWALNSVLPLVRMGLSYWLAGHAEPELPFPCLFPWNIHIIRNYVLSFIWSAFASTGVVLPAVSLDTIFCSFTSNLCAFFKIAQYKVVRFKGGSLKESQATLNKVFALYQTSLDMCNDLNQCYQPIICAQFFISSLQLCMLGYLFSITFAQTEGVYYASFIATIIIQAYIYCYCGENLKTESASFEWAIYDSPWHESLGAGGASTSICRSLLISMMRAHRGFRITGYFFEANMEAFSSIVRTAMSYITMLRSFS
# T1 sequence (Q9VNB5 1-486 partner): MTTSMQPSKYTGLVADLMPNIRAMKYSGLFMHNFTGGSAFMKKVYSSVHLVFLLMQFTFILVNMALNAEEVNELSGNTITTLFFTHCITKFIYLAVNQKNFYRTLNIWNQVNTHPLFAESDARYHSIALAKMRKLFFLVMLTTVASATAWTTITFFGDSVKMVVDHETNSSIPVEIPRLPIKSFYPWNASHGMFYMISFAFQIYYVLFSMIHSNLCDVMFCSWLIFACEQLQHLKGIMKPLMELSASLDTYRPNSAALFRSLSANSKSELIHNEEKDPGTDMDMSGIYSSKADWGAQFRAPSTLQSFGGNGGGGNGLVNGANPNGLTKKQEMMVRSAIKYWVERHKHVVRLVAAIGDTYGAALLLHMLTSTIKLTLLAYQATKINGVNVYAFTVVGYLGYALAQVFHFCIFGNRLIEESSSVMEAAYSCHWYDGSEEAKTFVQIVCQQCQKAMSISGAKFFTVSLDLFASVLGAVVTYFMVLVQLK
# Procedure: (§1) These VUAA1 normalized ∆F values were used to compare the different receptors and ligands.
# (§2) The concentration-dependent effect of the reference ligands on their cognate cell lines was examined in more detail. Twelve different ligand concentrations were measured on each cell line in an overall 0.01 μM to 100 μM concentration range with 5 repetitions with three technical replicates each time.
# (§3) Twelve thousand to 18,000 cells were plated into each well of a black wall, transparent bottom 384-well microplate (Greiner) 48 h or 72 h before the measurements and were simultaneously treated with 1 μg/mL doxycycline. […] The plate has 24 columns, thus we could record responses in up to eight different cell lines in each plate. On the day of the experiment, the growth medium was replaced with 20 µL assay buffer/well (140 mM NaCl, 5 mM KCl, 2 mM CaCl2, 1 mM MgCl2, 5 mM HEPES-Na, 20 mM glucose, pH 7.3, 340 mOsm). […] Baseline fluorescence (F0) was recorded for 5 s, after which 7 µL VOC buffer (140 mM NaCl, 5 mM KCl, 2 mM CaCl2, 1 mM MgCl2, 5 mM HEPES-Na, 31 mM glucose, 0.1% DMSO, pH 7.3, 340 mOsm) was injected into each well in one row and the fluorescence response was recorded for an additional 30 s, at a rate of one read/sec. VOC solutions (VOC buffer with 4× concentration of the final measured VOC concentration, 9 µL/well was injected) were measured on the same wells in a second round with the same protocol. Each individual concentration of a specific VOC sample was recorded in three wells for the same cell line on the same microplate. The raw data were exported in xls file format, F0 and FMAX values, and the fluorescence intensity changes (∆F) were calculated in Excel (Microsoft) (Supplementary file Data summary.xlsx) using the following equation: ΔF=FMAX-F0/F0 (see also Fig. 1C). On each plate, we recorded the response of each cell line to 50 µM VUAA1. The average of these ∆F values of each cell line were used to calculate the VUAA1-normalized values for the rest of the plate, by dividing VOC response ∆F values by the average VUAA1 response ∆F value of the corresponding OR cell line. Each VOC-OR combination was measured three times as technical replicates. […] The average of these replicates were used as one ∆F and VUAA1-normalized ∆F in the following analysis.
# (§4) In the next rows we tested the reference VOCs (or other VOCs known to activate the corresponding cell lines), in order to test if all cell lines are responsive. The remaining rows were used to test VOCs with unknown effect.
# (§5) The recorded FMAX, F0, ∆F, VUAA1-normalized ∆F values, as well as the OR name, the name of the tested sample, and the final concentration for each well were copied into supplementary file Data summary.xlsx, that was used to summarize all the plates recorded. Here, the averages of the measurements were calculated for each receptor-VOC-concentration combination.
# Drosophila OR98a = target: T2, Drosophila OR98a (Drosophila melanogaster, UniProt Q9VAZ3); test: Calcium ion fluorescence (GCaMP6) assay, OR98a stable HEK293 cell line; assay type: cell-based; conditions: for OR98a response (VUAA1-normalized) at 1 μM / OR98a response (VUAA1-normalized) at 10 μM / OR98a response (VUAA1-normalized) at 100 μM: OR98a cell line; for OR98a response (VUAA1-normalized) at 1 μM: VOC concentration 1 μM; for OR98a response (VUAA1-normalized) at 10 μM: VOC concentration 10 μM; for OR98a response (VUAA1-normalized) at 100 μM: VOC concentration 100 μM
# T2 construct: expressed in transfected cells
# T2 sequence (Q9VAZ3 1-397): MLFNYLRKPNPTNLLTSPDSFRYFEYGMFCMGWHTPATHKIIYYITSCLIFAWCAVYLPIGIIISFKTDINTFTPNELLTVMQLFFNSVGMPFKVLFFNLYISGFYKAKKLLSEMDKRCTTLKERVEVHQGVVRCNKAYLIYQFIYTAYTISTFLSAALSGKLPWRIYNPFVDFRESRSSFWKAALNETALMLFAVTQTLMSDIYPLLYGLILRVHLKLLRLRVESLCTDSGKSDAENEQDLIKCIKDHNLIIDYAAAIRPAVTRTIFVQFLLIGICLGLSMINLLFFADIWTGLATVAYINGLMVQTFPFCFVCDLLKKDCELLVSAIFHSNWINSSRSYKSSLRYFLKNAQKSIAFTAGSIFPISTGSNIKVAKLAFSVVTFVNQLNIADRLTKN
# T2 sequence (Q9VNB5 1-486 partner): T1 sequence (Q9VNB5 1-486 partner)
# Procedure: as §1, §2, §3, §4, §5
# [1] = ligand concentration 1 (unit not given), threshold 0.05, below shown as 0
# [2] = ligand concentration 10 (unit not given), threshold 0.05, below shown as 0
# [3] = ligand concentration 100 (unit not given), threshold 0.05, below shown as 0
# [4] = HEK293, read-out: Average response
# [5] = HEK293, read-out: OR47a response (VUAA1-normalized response)
# [6] = concentration 1, normalized fluorescence change, values below 0.05 threshold given as 0
# [7] = concentration 10, normalized fluorescence change, values below 0.05 threshold given as 0
# [8] = concentration 100, normalized fluorescence change, values below 0.05 threshold given as 0
# [9] = HEK293, read-out: OR98a response (VUAA1-normalized response)
SMILES,OR47a response (VUAA1-normalized) at 1 μM (Drosophila OR47a),OR47a response (VUAA1-normalized) at 10 μM (Drosophila OR47a),OR47a response (VUAA1-normalized) at 100 μM (Drosophila OR47a),Average response (Drosophila OR47a; odorant cc. 1 µM),Average response (Drosophila OR47a; odorant cc. 10 µM),Average response (Drosophila OR47a; odorant cc. 100 µM),DF norm AVERAGE OR47a (Drosophila OR47a; [1]),DF norm AVERAGE OR47a (Drosophila OR47a; [2]),DF norm AVERAGE OR47a (Drosophila OR47a; [3]),activation at 1 µM (Drosophila OR98a; [4]),activation at 10 µM (Drosophila OR98a; [4]),activation at 100 µM (Drosophila OR98a; [4]),OR98a response (VUAA1-normalized) at 1 μM (Drosophila OR98a),OR98a response (VUAA1-normalized) at 10 μM (Drosophila OR98a),OR98a response (VUAA1-normalized) at 100 μM (Drosophila OR98a),DF norm AVERAGE OR98a (Drosophila OR98a; [1]),DF norm AVERAGE OR98a (Drosophila OR98a; [2]),DF norm AVERAGE OR98a (Drosophila OR98a; [3]),further results
C=CC(C)(O)CCC=C(C)C (stereo not drawn) [linalool],0.00,0.00,0.00,0.00,0.0374,0.00,0,0,0,0%,0%,4%,0.00,0.00,0.00,0,0,0,
Cc1ccc(O)cc1 [4-methylphenol],,,,0.10,0.0217,0.0542,,,,0%,2%,2.76%,,,,,,,activation at 1 µM (Drosophila OR47a; [5]): 10%; activation at 10 µM (Drosophila OR47a; [5]): 0%; activation at 100 µM (Drosophila OR47a; [5]): 5.42%; DF norm AVERAGE OR47a (Drosophila OR47a; [6]): 0.1; DF norm AVERAGE OR47a (Drosophila OR47a; [7]): 0; DF norm AVERAGE OR47a (Drosophila OR47a; [8]): 0.05422; activation at 1 µM (Drosophila OR98a; [9]): 0%; activation at 10 µM (Drosophila OR98a; [9]): 0%; activation at 100 µM (Drosophila OR98a; [9]): 0%; DF norm AVERAGE OR98a (Drosophila OR98a; [6]): 0; DF norm AVERAGE OR98a (Drosophila OR98a; [7]): 0; DF norm AVERAGE OR98a (Drosophila OR98a; [8]): 0
Cc1cccc(C)c1 [m-xylene],0.00,0.00,0.00,0.00,0.00,0.00,0,0,0,0%,0%,2.54%,0.00,0.00,0.00,0,0,0,
